Assay results as given in patent US20230136941A1, “IMPROVING PLANT NUTRITIONAL VALUE AND GROWTH THROUGH ENHANCEMENT OF ESSENTIAL AMINO ACID LEVELS” (Board of Trustees of Michigan State University, priority 2020, published 2023).

Columns and labels:
[1] = test system: wild type cotyledon epidermal cells expressing GFP-δTIP; assay: Confocal imaging of vacuole morphology after temporal chemical treatment of wild type seedlings; settings: 5 μM AZD-8055, 2 or 4 hours
[2] = test system: eva1 cotyledon epidermal cells expressing GFP-δTIP; assay: Confocal imaging of vacuole morphology after temporal chemical treatment of eva1 seedlings; format: cell-based, Arabidopsis thaliana
[3] = test system: wild type (Col-0), eva1, ipms1-4 and ipms1-5 seedlings; assay: Primary root elongation of seedlings germinated and grown on medium containing chemical inhibitors (chronic treatment); format: in vivo, Arabidopsis thaliana
Experimental: Except for chronical treatments with specified chemicals, Arabidopsis seeds were stratified and grown on medium containing half-strength Linsmaier and Skoog nutrients (½ LS; Caisson Labs, LSP03), 1% sucrose and 0.4% phytagel (Sigma-Aldrich, P8169) in chambers configured with 21° C. and 16-hour light: 8-hour dark cycle.
In another pharmaceutical examination using AZD-8055, wortmannin and Lat B (FIG. 6A-6G, 6L-6Q), wild type (Col-0), eva1, ipms1-4 and ipms1-5 lines germinated and grew on vertically staged Petri dishes containing Arabidopsis growth medium containing specific chemical inhibitors.

[4] = test system: wild type (Col-0), ipms1-4 and ipms1-5 seedlings; assay: Root growth after transplant of 10-day old seedlings to Lat B medium; format: in vivo, Arabidopsis thaliana
Experimental: To examine the effect of latrunculin B (Lat B) on root elongation (FIG. 6L-6Q), wild type (Col-0), ipms1-4 and ipms1-5 lines germinated and grew on horizontally staged Petri dishes containing Arabidopsis growth medium (½ LS, 1% sucrose and 0.4% phytagel). 10-day old seedlings were transplanted to Petri dishes containing ½ LS, 1% sucrose and 1% Agar (Acumedia, 7558A) medium containing DMSO or 50 nM Lat B or 100 nM Lat B. Photographs were acquired immediately after the transplant and the Petri dishes were vertically staged in a Percival chamber.
Photographs were also acquired 8 days after the transplant.
Experiments were designed to validate this hypothesis by testing the sensitivity of the ipms1 alleles to the F-actin depolymerizing reagent latrunculin B (Lat B) (Cao et al., 2016). The primary root length of 10-day old ipms1-4 and ipms1-5 was approximately 50% of WT (FIG. 4H-4I). Seedlings of all genotypes were then transferred to medium containing DMSO or 50 nM or 100 nM Lat B in DMSO.

[5] = test system: omr1-11^D cotyledon epidermal cells; assay: ER strand phenotype of omr1-11^D after Torin2 treatment; format: cell-based, Arabidopsis thaliana; settings: 2-hour Torin2 treatment
[6] = 25 μM Lat B, two-hour treatment
[7] = nine-day old seedlings grown on Lat B medium (FIG. 6P-6Q)

COc1ccc(-c2ccc3c(N4CCOC[C@@H]4C)nc(N4CCOC[C@@H]4C)nc3n2)cc1CO [AZD-8055]
morphology of the central vacuole and trans-vacuolar strands in wild type cells [1]: did not exhibit significant changes | small vacuoles and trans-vacuolar strands in eva1 ([2]; 5 μM AZD-8055, 2 hours): reduced in appearance | vacuole appearance of eva1 cells ([2]; 5 μM AZD-8055, 4 hours): indistinguishable from wild type | vacuolar mutant phenotypes of eva1 (FIG. 6A-6F legend) ([2]; legend prints 5 mM AZD-8055, 2 and 4 hours): rescues vacuolar mutant phenotypes of eva1 | ipms1 primary root elongation ([3]; AZD-8055 higher concentrations (0.4, 0.6 and 1.0 μM), chronic): inhibited | ipms1 primary root elongation ([3]; AZD-8055 lower concentrations (0.1 and 0.2 μM), chronic): promoted

C/C1=C/C(=O)O[C@@H]2C[C@@H](CC[C@H](C)/C=C\CC1)O[C@@](O)([C@@H]1CSC(=O)N1)C2 [Lat B, latrunculin B]
small vacuoles in eva1 [2, 6]: persisted | trans-vacuolar strands in eva1 [2, 6]: disappeared | promotion of root elongation ([3]; Lat B treatment, chronic, increasing concentrations): not observed | primary root length vs DMSO control, ipms1 mutants [3, 7]: less effects | primary root length vs DMSO control, wild type [3, 7]: significant differences | primary root length of ipms1-4 and ipms1-5 compared to WT ([4]; 50 nM Lat B, 8 days after transplant (DMSO medium: approximately 65%)): 80% | formation of lateral roots in WT seedlings ([4]; 50 nM or 100 nM Lat B, 8 days after transplant): promoted the formation of lateral roots | primary root length of ipms1-4 and ipms1-5 compared to WT ([4]; 100 nM Lat B, 8 days after transplant): not significantly different from WT

Nc1ccc(-c2ccc3ncc4ccc(=O)n(-c5cccc(C(F)(F)F)c5)c4c3c2)cn1 [Torin2, 9-(6-aminopyridin-3-yl)-1-(3-(trifluoromethyl)phenyl) benzo[h][1,6]naphthyridin-2(1H)-one]
presumably unfused vacuoles and trans-vacuolar strands in eva1 ([2]; 1 μM Torin2, 2 hours): no longer present | enhanced ER strands in omr1-11^D [5]: recovered
